Data as given in patent US20260217708A1, “FUSED BENZAZEPINE DERIVATIVES FOR USE IN THE TREATMENT OF CANCER AND EPILEPSY” (UCB BIOPHARMA SRL, priority 2023, published 2026).

Columns and labels:
[1] = molecular target: T1, system Xc^− (Homo sapiens, UniProt Q9UPY5); assay: [^14C]L-Cystine uptake assay; format: cell-based; set-up: endogenous in cells; host or cells: H4 cells; conditions: H4 cells, sodium-free HEPES buffer, 0.5 μM L-[14C]Cystine and 4.5 μM L-Cystine, 1 hour at 37° C.; read-out: pIC50 [^14C] L-Cystine uptake assay (converted)
T1 sequence (Q9UPY5 1-501): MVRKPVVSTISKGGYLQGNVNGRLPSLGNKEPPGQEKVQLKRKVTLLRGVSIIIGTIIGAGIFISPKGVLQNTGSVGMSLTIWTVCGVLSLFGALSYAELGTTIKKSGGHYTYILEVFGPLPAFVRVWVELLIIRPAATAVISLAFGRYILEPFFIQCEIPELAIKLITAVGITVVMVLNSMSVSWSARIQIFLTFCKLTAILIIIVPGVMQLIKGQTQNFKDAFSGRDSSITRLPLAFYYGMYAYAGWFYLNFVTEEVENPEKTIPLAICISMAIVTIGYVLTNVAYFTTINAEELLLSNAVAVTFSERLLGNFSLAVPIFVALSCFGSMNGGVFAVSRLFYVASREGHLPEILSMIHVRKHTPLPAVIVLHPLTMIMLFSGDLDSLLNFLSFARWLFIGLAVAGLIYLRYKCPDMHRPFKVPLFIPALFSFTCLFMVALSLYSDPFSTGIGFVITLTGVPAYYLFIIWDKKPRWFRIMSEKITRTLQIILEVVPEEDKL
T1 sequence (P08195 1-529 partner): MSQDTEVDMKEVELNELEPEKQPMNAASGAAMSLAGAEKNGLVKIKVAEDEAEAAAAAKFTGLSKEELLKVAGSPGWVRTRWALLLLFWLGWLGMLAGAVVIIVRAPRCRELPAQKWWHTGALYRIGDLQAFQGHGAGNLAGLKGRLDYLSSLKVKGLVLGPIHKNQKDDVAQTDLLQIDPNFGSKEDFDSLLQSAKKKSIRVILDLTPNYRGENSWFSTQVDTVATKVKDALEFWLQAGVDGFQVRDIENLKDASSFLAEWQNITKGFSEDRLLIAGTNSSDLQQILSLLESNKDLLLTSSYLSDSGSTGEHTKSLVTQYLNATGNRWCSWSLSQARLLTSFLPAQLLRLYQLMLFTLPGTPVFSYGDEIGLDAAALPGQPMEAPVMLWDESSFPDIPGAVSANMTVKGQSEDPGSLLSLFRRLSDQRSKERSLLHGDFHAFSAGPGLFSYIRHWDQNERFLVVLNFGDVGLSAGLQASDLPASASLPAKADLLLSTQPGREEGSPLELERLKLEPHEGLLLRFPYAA
Summary of the method: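 Compound effect is given as pIC50, taken between controls of 1% DMSO and 50 μM Erastin. Human H4 cells were pretreated 15 min with compound in sodium-free buffer, then took up 0.5 μM [14C]cystine with 4.5 μM cold cystine for 1 hour at 37° C, read by scintillation proximity counting.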

[2] = molecular target: T1, system Xc^−; assay: Cystine-induced glutamate release assay; format: cell-based; set-up: endogenous in cells; host or cells: H4 cells; conditions: H4 cells, sodium-free HEPES buffer, 50 μM L-Cystine, 2 hours, Amplex Red glutamate readout; read-out: pIC50 Cystine-induced glutamate release assay (converted)
Summary of the method: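 IC50 (reported as pIC50) normalized to DMSO 1% and Erastin 50 μM controls, from Amplex Red fluorescence of glutamate exported into supernatant. H4 cells were washed into sodium-free buffer to exclude EAAT transport, then given compound with 50 μM L-cystine for 2 h in the incubator.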

| IC50 [1] | IC50 [2] | SMILES |
| --- | --- | --- |
| 15.8 to 39.8 nM | 15.8 to 39.8 nM | CC1C(=O)N(CC(=O)Nc2ccc(Cl)c(F)c2)c2cccc(F)c2-c2cccnc21 (single isomer, unassigned) [#409, N-(4-chloro-3-fluoro-phenyl)-2-[11-fluoro-5-methyl-6-oxo-5H-pyrido[2,3-d][1]benzazepin-7-yl]acetamide] |
| 15.8 to 39.8 nM | 15.8 to 39.8 nM | COc1cc2c(cn1)-c1cc(F)cnc1C(C)C(=O)N2CC(=O)Nc1ccc(Cl)c(F)c1 (single isomer, unassigned) [#410, N-(4-chloro-3-fluoro-phenyl)-2-[14-fluoro-5-methoxy-10-methyl-9-oxo-4,8,12-triazatricyclo[9.4.0.0^2,7]pentadeca-1(15),2(7),3,5,11,13-hexaen-8-yl]acetamide] |
| < 15.8 nM | < 15.8 nM | COc1cc2c(c(Cl)n1)-c1cccnc1C(C)C(=O)N2CC(=O)Nc1ccc(C(F)F)cc1 (single isomer, unassigned) [#411, 2-(3-chloro-5-methoxy-10-methyl-9-oxo-4,8,12-triazatricyclo[9.4.0.0^2,7]pentadeca-1(11),2(7),3,5,12,14-hexaen-8-yl]-N-[4-(difluoromethyl)phenyl)acetamide] |
| 15.8 to 39.8 nM | 39.8 to 100 nM | COc1cc2c(c(F)n1)-c1ncccc1C(C)C(=O)N2CC(=O)Nc1ccc(Cl)c(F)c1 (single isomer, unassigned) [#413, N-(4-chloro-3-fluoro-phenyl)-2-[15-fluoro-13-methoxy-8-methyl-9-oxo-3,10,14-triazatricyclo[9.4.0.0^2,7]pentadeca-1(11),2,4,6,12,14-hexaen-10-yl]acetamide] |
| 15.8 to 39.8 nM | 39.8 to 100 nM | CC1C(=O)N(CC(=O)Nc2ccc(Cl)c(F)c2)c2cc(Cl)cc(F)c2-c2nccnc21 (single isomer, unassigned) [#414, 2-[9-chloro-11-fluoro-5-methyl-6-oxo-5H-pyrazino[2,3-d][1]benzazepin-7-yl]-N-(4-chloro-3-fluoro-phenyl)acetamide] |
| < 15.8 nM | < 15.8 nM | COc1cnc2c(c1)-c1cnc(C)cc1N(CC(=O)Nc1ccc(Cl)c(F)c1)C(=O)C2C (single isomer, unassigned) [#415, N-(4-chloro-3-fluoro-phenyl)-2-[14-methoxy-5,10-dimethyl-9-oxo-4,8,12-triazatricyclo[9.4.0.0^2,7]pentadeca-1(15),2,4,6,11,13-hexaen-8-yl]acetamide] |
| < 15.8 nM | 15.8 to 39.8 nM | CC1C(=O)N(CC(=O)Nc2ccc(C(F)F)cc2)c2cc(OC(F)F)nc(Cl)c2-c2cccnc21 (single isomer, unassigned) [#416, 2-[3-chloro-5-(difluoromethoxy)-10-methyl-9-oxo-4,8,12-triazatricyclo[9.4.0.0^2,7]pentadeca-1(15),2,4,6,11,13-hexaen-8-yl]-N-[4-(difluoromethyl)phenyl]acetamide] |
| 39.8 to 100 nM | 39.8 to 100 nM | CC1C(=O)N(CC(=O)Nc2ccc(Cl)c(F)c2)c2cc(Cl)cc(F)c2-c2ncncc21 (single isomer, unassigned) [#418, 2-[9-chloro-11-fluoro-5-methyl-6-oxo-5H-pyrimido[5,4-d][1]benzazepin-7-yl]-N-(4-chloro-3-fluoro-phenyl)acetamide] |
| < 15.8 nM | 15.8 to 39.8 nM | CC1C(=O)N(CC(=O)Nc2ccc(Cl)c(F)c2)c2ccnc(F)c2-c2cc(F)cnc21 (single isomer, unassigned) [#419, N-(4-chloro-3-fluoro-phenyl)-2-[3,14-difluoro-10-methyl-9-oxo-4,8,12-triazatricyclo[9.4.0.0^2,7]pentadeca-1(15),2,4,6,11,13-hexaen-8-yl]acetamide] |
| < 15.8 nM | < 15.8 nM | Cc1cc2c(cc1C#N)-c1cc(F)cnc1C(C)C(=O)N2CC(=O)Nc1ccc(C(F)F)cc1 (single isomer, unassigned) [#420, 2-[10-cyano-2-fluoro-5,9-dimethyl-6-oxo-5H-pyrido[2,3-d][1]benzazepin-7-yl]-N-[4-(difluoromethyl)phenyl]acetamide] |
| < 15.8 nM | < 15.8 nM | Cc1cc2c(c(Cl)n1)-c1cc(F)cnc1C(C)C(=O)N2CC(=O)Nc1ccc(C(C)(F)F)cc1 (single isomer, unassigned) [#423, 2-(3-chloro-14-fluoro-5,10-dimethyl-9-oxo-4,8,12-triazatricyclo[9.4.0.0^2,7]pentadeca-1(11),2,4,6,12,14-hexaen-8-yl)-N-[4-(1,1-difluoroethyl)phenyl]acetamide] |
| 15.8 to 39.8 nM | 15.8 to 39.8 nM | Cc1cc2c(c(Cl)n1)-c1cc(F)cnc1C(C)C(=O)N2CC(=O)Nc1ccc(C(F)(F)F)cn1 (single isomer, unassigned) [#424, 2-(3-chloro-14-fluoro-5,10-dimethyl-9-oxo-4,8,12-triazatricyclo[9.4.0.0^2,7]pentadeca-1(11),2,4,6,12,14-hexaen-8-yl)-N-[5-(trifluoromethyl)-2-pyridyl]acetamide] |
| 39.8 to 100 nM | 100 to 501 nM | Cc1cc2c(cc1C)N(CC(=O)Nc1ccc(Cl)c(F)c1)C(=O)Cc1cccnc1-2 [#1, N-(4-chloro-3-fluoro-phenyl)-2-(9,10-dimethyl-6-oxo-5-H-pyrido[3,2-d][1]benzazepin-7-yl)acetamide] |
| 15.8 to 39.8 nM | 100 to 501 nM | Cc1cc2c(cc1C)N(CC(=O)Nc1ccc(Cl)c(F)c1)C(=O)Cc1ccncc1-2 [#2, N-(4-chloro-3-fluoro-phenyl)-2-(9,10-dimethyl-6-oxo-5H-pyrido[4,3-d][1]benzazepin-7-yl)acetamide] |
| 39.8 to 100 nM | 100 to 501 nM | Cc1cc2c(cc1C)N(CC(=O)Nc1ccc(Cl)c(F)c1)C(=O)Cc1ncccc1-2 [#3, N-(4-chloro-3-fluoro-phenyl)-2-(9,10-dimethyl-6-oxo-5-H-pyrido[2,3-d][1]benzazepin-7-yl)acetamide] |
| 100 to 501 nM | 100 to 501 nM | Cc1ccc2c(n1)CC(=O)N(CC(=O)Nc1ccc(Cl)c(F)c1)c1cc(C)c(C)cc1-2 [#4, N-(4-chloro-3-fluoro-phenyl)-2-(3,9,10-trimethyl-6-oxo-5-H-pyrido[2,3-d][1]benzazepin-7-yl)acetamide] |
| 39.8 to 100 nM | 100 to 501 nM | Cc1cc2c(cc1C)-n1nccc1CC(=O)N2CC(=O)Nc1ccc(C(F)(F)F)cc1 [#5, 2-(8,9-dimethyl-5-oxo-4H-pyrazolo[5,1-d][1,5]benzodiazepin-6-yl)-N-[4-(trifluoromethyl)phenyl]acetamide] |
| 100 to 501 nM | 100 to 501 nM | Cc1cc2c(cn1)-c1cnccc1CC(=O)N2CC(=O)Nc1ccc(C(F)(F)F)cc1 [#6, 2-(5-methyl-9-oxo-4,8,14-triazatricyclo[9.4.0.0^2,7]pentadeca-1(11),2(7),3,5,12,14-hexaen-8-yl)-N-[4-(trifluoromethyl)phenyl]acetamide] |
| 39.8 to 100 nM | 100 to 501 nM | O=C(CN1C(=O)Cc2cccnc2-c2cnc(Cl)cc21)Nc1ccc(C(F)(F)F)cc1 [#7, 2-(13-chloro-9-oxo-3,10,14-triazatricyclo[9.4.0.0^2,7]pentadeca-1(11),2(7),3,5,12,14-hexaen-10-yl)-N-[4-(trifluoromethyl)phenyl]acetamide] |
| 39.8 to 100 nM | 100 to 501 nM | Cc1cc2c(cc1C)-n1ccnc1CC(=O)N2CC(=O)Nc1ccc(C(F)(F)F)cc1 [#8, 2-(8,9-dimethyl-5-oxo-4H-imidazo[1,2-a][1,5]benzodiazepin-6-yl)-N-[4-(trifluoromethyl)phenyl]acetamide] |
| 39.8 to 100 nM | 100 to 501 nM | Cc1cc2c(cc1C)N(CC(=O)Nc1ccc(C(F)(F)F)cc1)C(=O)Cc1cncnc1-2 [#9, 2-(9,10-dimethyl-6-oxo-5H-pyrimido[5,4-d][1]benzazepin-7-yl)-N-[4-(trifluoromethyl)phenyl]acetamide] |
